Consider 2 molecules from ChEMBL document CHEMBL1811878, “Heteroatom-substituted analogues of orphan nuclear receptor small heterodimer partner ligand and apoptosis inducer (E)-4-[3-(1-Adamantyl)-4-hydroxyphenyl]-3-chlorocinnamic acid” (J Med Chem, 2011).

SMILES strings stand for the structures. In brackets after ≈: the same amount, converted by molar mass. Activity calls are given as the source filed them. The rule behind the calls is not given here. Bounds are passed on as bounds.

Data set [1] has as its system HeLa. Put plainly: Induction of apoptosis in human HeLa cells assessed as ATP level at 0.5 uM after 48 hrs by luminometric analysis. Type of data set: functional.
Data set [2] deals with SK-BR-3. Kind of data set: Induction of apoptosis in human SKBR3 cells assessed as DNA fragmentation at 1 uM after 72 hrs by acridine orange staining. Type of data set: functional.
The test system of data set [3] is HeLa. Put plainly: Induction of apoptosis in human HeLa cells assessed as ATP level at 1 uM after 72 hrs by acridine orange staining. Type of data set: functional.
The nature of data set [4]: Induction of apoptosis in mouse MMTV-Wnt-1 cells assessed as cell viability after 72 hrs by DAPI staining based cell counting. Type of data set: functional.
Data set [5] relates to HT-29. Put plainly: Induction of apoptosis in human HT-29 cells assessed as decrease in ATP level at 10 uM after 72 hrs by luminescence assay. Type of data set: functional. Further details: scale not given: the % may be the effect or the level left.
The subject of data set [6] is A549. Put plainly: Induction of apoptosis in human A549 cells assessed as decrease in ATP level at 10 uM after 72 hrs by luminescence assay. Type of data set: functional, cell-based.
Data set [7] deals with PC-3. Put plainly: Induction of apoptosis in human PC3 cells assessed as decrease in ATP level at 10 uM after 72 hrs by luminescence assay. Type of data set: functional, cell-based.
Data set [8] relates to A549. Put plainly: Induction of apoptosis in human A549 cells assessed as decrease in ATP level after 72 hrs by luminescence assay. Type of data set: functional, cell-based.
Data set [9] deals with PC-3. Put plainly: Induction of apoptosis in human PC3 cells assessed as decrease in ATP level after 72 hrs by luminescence assay. Type of data set: functional, cell-based.
Data set [10] concerns HT-29. Kind of data set: Induction of apoptosis in human HT-29 cells assessed as decrease in ATP level at 10 uM after 72 hrs by luminescence assay relative to control. Further details: scale not given: the % may be the effect or the level left. Type of data set: functional.
The subject of data set [11] is HT-29. Kind of data set: Induction of apoptosis in human HT-29 cells assessed as decrease in ATP level after 72 hrs by luminescence assay. Type of data set: functional, cell-based.
The test system of data set [12] is A549. Put plainly: Induction of apoptosis in human A549 cells assessed as decrease in ATP level at 5 uM after 72 hrs by luminescence assay. Type of data set: functional. Further details: scale not given: the % may be the effect or the level left.
In data set [13] the test system is PC-3. Put plainly: Induction of apoptosis in human PC3 cells assessed as decrease in ATP level at 5 uM after 72 hrs by luminescence assay. Type of data set: functional. Further details: scale not given: the % may be the effect or the level left.
Data set [14] concerns HT-29. Kind of data set: Induction of apoptosis in human HT-29 cells assessed as decrease in ATP level at 5 uM after 72 hrs by luminescence assay. Type of data set: functional. The arrangement: scale not given: the % may be the effect or the level left.
Data set [15] concerns KG-1. Put plainly: Growth inhibition in human KG1 cells expressing p53 gene at 1 uM after 48 hrs by MTT assay. Type of data set: functional. The conditions noted are these: KG-1, 48 h, read-out: GI. On the technique in general: Formazan colour is commonly taken as a measure of viable cells.
For data set [16], the system named is KG-1. Put plainly: Growth inhibition in human KG1 cells expressing p53 gene at 5 uM after 48 hrs by MTT assay. Type of data set: functional. As to conditions: KG-1, 48 h, read-out: GI.
The subject of data set [17] is KG-1. Put plainly: Induction of apoptosis in human KG1 cells expressing p53 gene assessed as DNA fragmentation at 1 uM after 48 hrs by acridine orange staining method. Type of data set: functional.
The test system of data set [18] is KG-1. Put plainly: Induction of apoptosis in human KG1 cells assessed as DNA fragmentation at 5 uM after 48 hrs by acridine orange staining method. Type of data set: functional.
The nature of data set [19]: Aqueous solubility of the compound in PBS at pH 7.2 by UV spectrophotometric analysis. Type of data set: physicochemical. As to conditions: PBS, read-out: solubility.
Data set [20] in a line: Aqueous solubility of the compound in water at pH 5 by UV spectrophotometric analysis. Type of data set: physicochemical.
Data set [21] relates to KG-1. Put plainly: Induction of apoptosis in human KG1 cells expressing p53 gene assessed as DNA fragmentation at 0.1 to 1 uM after 48 hrs by acridine orange staining method. Type of data set: functional, cell-based.
Data set [22] concerns KG-1. Put plainly: Growth inhibition in human KG1 cells expressing p53 gene at 0.1 to 1 uM after 48 hrs by MTT assay. Type of data set: functional, cell-based.
The subject of data set [23] is MDA-MB-231. Kind of data set: Growth inhibition of retinoid-resistant human MDA-MB-231 cells expressing p53 and ERbeta gene at 0.1 to 1 uM by MTT assay. Type of data set: functional, cell-based. As to conditions: TDE = time-dependent effect.
The subject of data set [24] is MDA-MB-231. Kind of data set: Growth inhibition of retinoid-resistant human MDA-MB-231 cells expressing p53 and ERbeta gene after 48 hrs by MTT assay. Type of data set: functional, cell-based.
For data set [25], the system named is MDA-MB-231. Kind of data set: Induction of apoptosis in retinoid-resistant human MDA-MB-231 cells expressing p53 and ERbeta gene assessed as DNA fragmentation at 0.1 to 1 uM by acridine orange staining method. As to conditions: TDE = time-dependent effect. Type of data set: functional, cell-based.
The test system of data set [26] is MDA-MB-231. Put plainly: Induction of apoptosis in retinoid-resistant human MDA-MB-231 cells expressing p53 and ERbeta gene assessed as DNA fragmentation after 48 hrs by acridine orange staining method. Type of data set: functional, cell-based.
The subject of data set [27] is MDA-MB-231. Kind of data set: Growth inhibition of retinoid-resistant human MDA-MB-231 cells expressing p53 and ERbeta gene at 1 uM after 24 hrs by MTT assay. Type of data set: functional. As to conditions: MDA-MB-231, 24 h, read-out: GI.
The subject of data set [28] is MDA-MB-231. Put plainly: Growth inhibition of retinoid-resistant human MDA-MB-231 cells expressing p53 and ERbeta gene at 1 uM after 48 hrs by MTT assay. Type of data set: functional. The conditions noted are these: MDA-MB-231, 48 h, read-out: GI.
For data set [29], the system named is MDA-MB-231. Put plainly: Induction of apoptosis in retinoid-resistant human MDA-MB-231 cells expressing p53 and ERbeta gene assessed as DNA fragmentation at 1 uM after 24 hrs by acridine orange staining method. Type of data set: functional.
Data set [30] relates to MDA-MB-231. Kind of data set: Induction of apoptosis in retinoid-resistant human MDA-MB-231 cells expressing p53 and ERbeta gene assessed as DNA fragmentation at 1 uM after 48 hrs by acridine orange staining method. Type of data set: functional.
Data set [31] relates to SK-BR-3. Kind of data set: Induction of apoptosis in estrogen receptor-deficient human SKBR3 cells assessed as DNA fragmentation at 0.5 uM by acridine orange staining. Type of data set: functional, cell-based. As to conditions: TDE = time-dependent effect.
Data set [32] deals with HeLa. Kind of data set: Induction of apoptosis in human HeLa cells assessed as ATP level at 0.5 uM by luminometric analysis. Type of data set: functional, cell-based. The conditions noted are these: TDE = time-dependent effect.
For data set [33], the system named is SK-BR-3. Put plainly: Induction of apoptosis in estrogen receptor-deficient human SKBR3 cells assessed as DNA fragmentation at 0.5 uM after 48 hrs by acridine orange staining. Type of data set: functional.
In data set [34] the test system is HT-29. Kind of data set: Growth inhibition of ERalpha-negative and ERbeta-positive human HT-29 cells at 10 uM after 72 hrs in presence of 10% FCS. Type of data set: functional. The conditions noted are these: HT-29, 72 h, read-out: GI.
The subject of data set [35] is A549. Kind of data set: Growth inhibition of ERalpha-negative and ERbeta-positive human A549 cells at 10 uM after 72 hrs. Type of data set: functional. The conditions noted are these: A549, 72 h, read-out: GI.
Data set [36] deals with HeLa. Kind of data set: Growth inhibition of human HeLa cells at 1 uM after 96 hrs by MTT assay in presence of 5% serum. Type of data set: functional. As to conditions: read-out: GI.
For data set [37], the system named is HeLa. Put plainly: Induction of apoptosis in human HeLa cells plated on serum free media for 24 hrs assessed as caspase 3 cleavage at 10 uM after 12 hrs. Type of data set: functional.
In data set [38] the test system is SK-BR-3. Kind of data set: Growth inhibition of estrogen receptor-deficient human SKBR3 cells at 1 uM after 144 hrs by MTT assay relative to control in presence of 5% serum. Type of data set: functional. The conditions noted are these: SK-BR-3, 144 h, read-out: GI.
Data set [39] deals with SK-BR-3. Kind of data set: Growth inhibition of estrogen receptor-deficient human SKBR3 cells at 1 uM after 216 hrs by MTT assay relative to control in presence of 5% serum. Type of data set: functional. As to conditions: SK-BR-3, 216 h, read-out: GI.

On to `O=C(O)/C=C/c1ccc(-c2ccc(O)c(C34CC5CC(CC(C5)C3)C4)c2)nc1`, for which the Activity is greater than 60% with HeLa [1]; 15% in the data set with SK-BR-3 [2]; 2.6% in the data set on HeLa [3]; “>=40%” in the data set on HT-29 [5]; “Dose-dependent effect” in the data set on A549 [8]; “Dose-dependent effect” in the data set with PC-3 [9]. The Activity with HT-29 [10] is less than 60%; in the data set on HT-29 [11], “Dose-dependent effect”; with A549 [12], 30%; in the data set on PC-3 [13], 30%; in the data set on HT-29 [14], 30%; with KG-1 [17] it was 68%. The Activity with KG-1 [18] was 84%; in the data set with MDA-MB-231 [25] it was “tde”; in the data set with MDA-MB-231 [26] it was “Dose-dependent effect”; in the data set on MDA-MB-231 [29], 38%; with MDA-MB-231 [30], 82%; with SK-BR-3 [31], “tde”. Besides, the Activity result was “tde” in the data set with HeLa [32] and 1.9% in the data set on SK-BR-3 [33]. Also, the IC50 (in general, the midpoint of a concentration-inhibition curve) in data set [4] is 19 nM. In addition, the result in the data set on A549 [6], in the data set with PC-3 [7] and with KG-1 [21] was Active. The figures for the inhibition of growth at 1 µM with KG-1 [15], in the data set with MDA-MB-231 [27] and in the data set with MDA-MB-231 [28] were 85%, 86% and 85%, respectively. Also, in the data set on KG-1 [16], the inhibition of growth at 5 µM was 90%. The solubility (in general, the concentration that dissolves in the medium under given conditions) turned out to be 14 µM (≈ 5.26 µg/mL) in [19] and 7 µM (≈ 2.63 µg/mL) in data set [20]. For the same molecule, the “growth inhibition (GI)” value in the data set on KG-1 [22] is “Active”. In addition, the “growth inhibition (GI)” value in the data set with MDA-MB-231 [23] was “tde”; in the data set on MDA-MB-231 [24], “Dose-dependent effect”.
In the case of `CC1=C(/C=C/C(C)=C/C=C/C(C)=C/C(=O)O)C(C)(C)CCC1` [TRETINOIN], the inhibition of growth at 10 µM was determined as 8% in the data set on HT-29 [34] and 5% with A549 [35]. Moreover, the inhibition of growth at 1 µM with HeLa [36] stood at 71%; with SK-BR-3 [38] it was 36%; in the data set with SK-BR-3 [39], 24%. The Activity in the data set on HeLa [37] is 87%.
